Among the data in patent US7776862B2, “Pyridyl and phenyl substituted piperazine-piperidines with CXCR3 antagonist activity” (Schering Corporation, priority 2005, dated 2010) are IC50 values, retold here.

Each structure is given as a SMILES string.

One assay addresses T1, human CXCR3 (N-delta 4) (Homo sapiens, UniProt P49682).
T1 construct: CD8 leader; Flag tag; expressed in transfected cells; membranes used
T1 sequence (P49682 5-368 limits assumed): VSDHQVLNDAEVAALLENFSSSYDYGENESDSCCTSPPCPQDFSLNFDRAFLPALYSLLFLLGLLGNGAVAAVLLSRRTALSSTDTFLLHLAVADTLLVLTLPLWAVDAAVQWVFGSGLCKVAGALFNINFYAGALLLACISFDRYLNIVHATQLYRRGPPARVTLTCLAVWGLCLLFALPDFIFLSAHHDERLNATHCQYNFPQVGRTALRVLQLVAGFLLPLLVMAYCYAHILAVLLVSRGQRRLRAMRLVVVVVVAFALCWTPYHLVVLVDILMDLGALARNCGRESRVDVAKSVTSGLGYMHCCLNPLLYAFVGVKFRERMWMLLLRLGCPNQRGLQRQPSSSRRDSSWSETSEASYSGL
Nature of the assay: Human CXCR3 (N-delta 4) scintillation proximity assay (SPA), [125I] IP-10 binding. Particulars: IC50 rating; Ba/F3-hCXCR3 (N-delta 4) membranes, 25 pM [125I] IP-10. The method in brief: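 Membranes from mouse Ba/F3 pro-B cells stably expressing Flag-tagged human CXCR3 (N-delta 4) were coupled to SPA beads. IP-10 was added together with titrated compounds to start the reaction, and bound radioligand was read by scintillation proximity.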
On to `CC1(N2CCN(c3ncc(C(=O)NCC4CCCCC4)cc3Cl)CC2)CCN(Cc2ccc(Cl)cc2)CC1` [compound 202], for which the IC50 fell in the range of 25 to 100 nM.
The molecule `Cc1cc(C(=O)NCC2CCCCC2)cnc1N1CCN(C2CCN(Cc3ccc(Cl)cc3)CC2)CC1` [compound 203] registered an IC50 of more than 100 nM.
Still for that read-out and setting: the result for `C[C@H]1CN(c2ccc(C(=O)NCc3ccc(F)c(F)c3)cc2Cl)CCN1C1(C)CCN(Cc2ccc(Cl)cc2)CC1` [compound 204] reads 25 to 100 nM; that for `CNC(=O)c1cnc(N2CCN(C3(C)CCN(Cc4ccc(Cl)cc4)CC3)[C@@H](C)C2)c(Cl)c1` [compound 205], more than 100 nM; that for `CC1(N2CCN(c3ncc(C(=O)NCc4ccc(Cl)c(Cl)c4)cc3Cl)CC2)CCN(Cc2ccc(Cl)cc2)CC1` [compound 206], 25 to 100 nM.
With `CC1(N2CCN(c3ncc(C(=O)NCc4ccc(F)c(F)c4)cc3Cl)CC2)CCN(Cc2ccc(Cl)cc2)CC1` [compound 207], the IC50 was more than 100 nM.
Same read-out and setting: the result for `CCNC(=O)c1cnc(N2CCN(C3(CC)CCN(Cc4ccc(Cl)cc4)CC3)CC2)c(Cl)c1` [compound 208] reads more than 100 nM; that for `CCNC(=O)c1cnc(N2CCN(C3CCN(Cc4ccc(Cl)cc4)CC3C)[C@@H](C)C2)c(Cl)c1` (some centres unmarked) [compound 209], less than 25 nM; that for `CCNC(=O)c1cnc(N2CCN(C3CCN(Cc4ccc(Cl)cc4)CC3)[C@@H](C(C)C)C2)c(Cl)c1` [compound 210], less than 25 nM.
The molecule `CCNC(=O)c1cnc(N2CCN(C3CCN(C(=O)c4ccc(Cl)cc4)CC3)[C@@H](C(C)C)C2)c(Cl)c1` [compound 211] gave an IC50 of more than 100 nM.
In turn, `CCNC(=O)c1cnc(N2CCN(C3CCN(Cc4ccc(Cl)cc4F)CC3)[C@@H](CC)C2)c(Cl)c1` [compound 212] registered a half-maximal inhibitory concentration (IC50) of less than 25 nM.
Molecule `CCNC(=O)c1cnc(N2CCN(C3CCN(Cc4ccc(Cl)cc4)CC3)[C@@H](CC)C2)c(Cl)c1` [compound 213] registered an IC50 of less than 25 nM.
The same measure, in the same setting: next, `CCNC(=O)c1cnc(N2C[C@H](CC)N(C3CCN(Cc4ccc(Cl)cc4)CC3)C[C@H]2C)c(Cl)c1` [compound 214]: less than 25 nM.
In turn, `CC[C@H]1CN(c2ncc(C(=O)NC3CC3)cc2Cl)CCN1C1CCN(Cc2ccc(Cl)cc2F)CC1` [compound 215] registered an IC50 of less than 25 nM.
On the same count and under the same terms, the result for `CC[C@H]1CN(c2ncc(C(=O)NC(C)C)cc2Cl)CCN1C1CCN(Cc2ccc(Cl)cc2)CC1` [compound 216] reads less than 25 nM; that for `CCNC(=O)c1cnc(N2C[C@H](CC)N(C3CCN(Cc4ccc(Cl)cc4F)CC3)C[C@H]2C)c(Cl)c1` [compound 217], less than 25 nM.
As to `CCNC(=O)c1cnc(N2CCN(C3CCN(Cc4ccc(I)cc4)CC3)[C@@H](CC)C2)c(Cl)c1` [compound 218], the IC50 was less than 25 nM.
The molecule `CC[C@H]1CN(c2ncc(C(=O)NC)cc2Cl)CCN1C1CCN(Cc2ccc(Br)cc2F)CC1` [compound 219] gave an IC50 of less than 25 nM.
As to `CCNC(=O)c1cnc(N2CCN(C3CCN(Cc4ccc(Cl)cc4)C(C)C3)[C@@H](CC)C2)c(Cl)c1` (some centres unmarked) [compound 220], the IC50 was less than 25 nM.
`CC[C@H]1CN(c2ncc(C(=O)NCc3ccc(F)c(F)c3)cc2Cl)CCN1C1CCN(Cc2ccc(Cl)cc2)CC1` [compound 221]: the IC50 is less than 25 nM.
Consider `C[C@H]1CN(c2ncc(C(=O)NCc3ccc(F)c(F)c3)cc2Br)CCN1C1CCN(Cc2ccc(Cl)cc2)CC1` [compound 222], for which the IC50 was less than 25 nM.
Molecule `CC[C@H]1CN(c2ncc(C(=O)NC)cc2Cl)CCN1C1CCN(Cc2ccc(Cl)cc2)CC1` [compound 223] came in with an IC50 of less than 25 nM.
Take `CC[C@H]1CN(c2ncc(C(=O)NC)cc2Cl)CCN1C1CCN(Cc2ccc(Cl)cc2F)CC1` [compound 224]: the concentration for half-maximal inhibition (IC50) is less than 25 nM.
The molecule `C[C@H]1CN(c2ncc(C(=O)NCC3CCCCC3)cc2Br)CCN1C1CCN(Cc2ccc(Cl)cc2)CC1` [compound 225] returned an IC50 of less than 25 nM.
In the case of `C[C@H]1CN(c2ncc(C(=O)NCc3ccc(F)c(F)c3)cc2Cl)CCN1C1CCN(Cc2ccc(Cl)cc2)CC1` [compound 226], the IC50 is less than 25 nM.
Molecule `CCNC(=O)c1cnc(N2CCN(C3CCN(Cc4ccc(Cl)cc4)CC3)[C@@H](C)C2)c(Cl)c1` [compound 227] displayed an IC50 of less than 25 nM.
Regarding `C[C@H]1CN(c2ncc(C(=O)NCC3CCCCC3)cc2Cl)CCN1C1CCN(Cc2ccc(Cl)cc2)CC1` [compound 228], the IC50 is less than 25 nM.
With `CCNC(=O)c1cc(Cl)c(N2CCN(C3CCN(Cc4ccc(Cl)cc4F)CC3)[C@@H](CC)C2)[n+]([O-])c1` [compound 229], the IC50 was less than 25 nM.
`C[C@H]1CN(c2ncc(C(=O)NCc3ccc(Cl)c(Cl)c3)cc2Cl)CCN1C1CCN(Cc2ccc(C#N)cc2)CC1` [compound 230] came in with a 50% inhibitory concentration (IC50) of less than 25 nM.
The molecule `CCNC(=O)c1cnc(N2CCN(C3CCN([C@H](C)c4ccc(Cl)cc4)CC3)[C@@H](C)C2)c(Cl)c1` [compound 231] displayed an IC50 of less than 25 nM.
In turn, `CNC(=O)c1cnc(N2CCN(C3CCN([C@H](C)c4ccc(Cl)cc4)CC3)[C@@H](C)C2)c(Cl)c1` [compound 232] registered an IC50 of less than 25 nM.
In turn, `C[C@H]1CN(c2ncc(C(=O)Nc3ccon3)cc2Cl)CCN1C1CCN(Cc2ccc(Cl)cc2)CC1` [compound 233] showed a half-maximal inhibitory concentration (IC50) of less than 25 nM.
`C[C@H]1CN(c2ncc(C(=O)NCc3ccc(F)c(F)c3)cc2Cl)CCN1C1CCN(Cc2ccc(C#N)cc2)CC1` [compound 234] returned an IC50 of less than 25 nM.
The molecule `C[C@@H]1CN(c2ncc(C(=O)NCC3CCCCC3)cc2Cl)CCN1C1CCN(Cc2ccc(C#N)cc2)CC1` [compound 235] displayed an IC50 of less than 25 nM.
Regarding `CC(C)NC(=O)c1cnc(N2CCN(C3CCN(Cc4ccc(Cl)cc4)CC3)[C@@H](C)C2)c(Cl)c1` [compound 236], the IC50 was less than 25 nM.
The molecule `CNC(=O)c1cnc(N2CCN(C3CCN(Cc4ccc(Cl)cc4)CC3)[C@@H](C)C2)c(Br)c1` [compound 237] came in with an IC50 of less than 25 nM.
`CCNC(=O)c1cnc(N2CCN(C3CCN(C(C)c4ccc(Cl)cc4)CC3)[C@@H](C)C2)c(Cl)c1` (some centres unmarked) [compound 239] came in with an IC50 of less than 25 nM.
`CNC(=O)c1cnc(N2CCN(C3CCN(Cc4ccc(Br)cc4F)CC3)[C@@H](C)C2)c(Cl)c1` [compound 240]: the IC50 is less than 25 nM.
Molecule `CNC(=O)c1cnc(N2CCN(C3CCN(Cc4ccc(Cl)cc4)CC3)[C@@H](C)C2)c(Cl)c1` [compound 241] came in with a half-inhibitory concentration (IC50) of less than 25 nM.
As to `C[C@@H]1CN(c2ncc(C(=O)NCC3CCCCC3)cc2Cl)CCN1C1CCN(Cc2ccc(Cl)cc2)CC1` [compound 242], the IC50 was less than 25 nM.
In turn, `CNC(=O)c1cnc(N2CCN(C3CCN(C(C)c4ccc(Cl)cc4)CC3)[C@@H](C)C2)c(Cl)c1` (some centres unmarked) [compound 243] had an IC50 of less than 25 nM.
For the molecule `CC[C@H]1CN(c2ncc(C(N)=O)cc2Cl)CCN1C1CCN(Cc2ccc(Cl)cc2F)CC1` [compound 244], the IC50 was less than 25 nM.
Still for that read-out and setting: the result for `CC[C@H]1CN(c2ncc(C(=O)NC)cc2Cl)CCN1C1CCN(C(=O)c2ccc(Br)cc2)CC1` [compound 245] reads less than 25 nM; that for `CCNC(=O)c1cnc(N2CCN(C3CCN(C(=O)c4ccc(Cl)cc4)CC3)[C@@H](CC)C2)c(Cl)c1` [compound 246], less than 25 nM; that for `C[C@@H](NC(=O)c1cnc(N2CCN(C3CCN(Cc4ccc(Cl)cc4)CC3)[C@@H](C)C2)c(Cl)c1)C1CCCCC1` [compound 247], less than 25 nM.
With `C[C@H]1CN(c2ncc(C(=O)NCc3ccc(F)c(F)c3)cc2Cl)CCN1C1CCN(C(=O)c2ccc(C#N)cc2)CC1` [compound 248], the IC50 is less than 25 nM.
`CCNC(=O)c1cnc(N2CCN(C3CCN(Cc4ccc(Cl)cc4F)CC3)C(C3CC3)C2)c(Cl)c1` (centres unmarked) [compound 249] yielded an IC50 of less than 25 nM.
`C[C@@H]1CN(c2ncc(C(=O)NCC3CCCCC3)cc2Cl)CCN1C1CCN(C(=O)c2ccc(C#N)cc2)CC1` [compound 250]: the IC50 is less than 25 nM.
For `CCNC(=O)c1cnc(N2CCN(C3CCN(Cc4ccc(Cl)cc4F)CC3)[C@@H](C)C2)c(Cl)c1` [compound 251], the IC50 is less than 25 nM.
As for `CNC(=O)c1cnc(N2CCN(C3CCN(Cc4ccc(Cl)cc4)C(C)C3)[C@@H](C)C2)c(Cl)c1` (some centres unmarked) [compound 252], the IC50 is less than 25 nM.
The molecule `O=C(NCc1ccc(F)c(F)c1)c1cnc(N2CCN(C3CCN(Cc4ccc(Cl)cc4)CC3)CC2)c(Br)c1` [compound 253] came in with an IC50 of less than 25 nM.
As for `C[C@@H]1CN(c2ncc(C(=O)NCc3ccc(F)c(F)c3)cc2Cl)CCN1C1CCN(Cc2ccc(Cl)cc2)CC1` [compound 254], the IC50 is less than 25 nM.
As for `CNC(=O)c1cnc(N2CCN(C3CCN(Cc4ccc(Cl)cc4Cl)CC3)[C@@H](C)C2)c(Cl)c1` [compound 255], the IC50 was less than 25 nM.
In turn, `CCNC(=O)c1cnc(N2C[C@H](CC)N(C3CCN(C(=O)c4ccc(Cl)cc4)CC3)C[C@H]2C)c(Cl)c1` [compound 256] registered an IC50 of less than 25 nM.
`CC[C@H]1CN(c2ncc(C(=O)NCCO)cc2Cl)CCN1C1CCN(C(CO)c2ccc(Cl)cc2)CC1` (some centres unmarked) [compound 257] registered an IC50 of less than 25 nM.
The molecule `CNC(=O)c1cnc(N2CCN(C3CCN(Cc4ccc(Cl)cc4F)CC3)[C@@H](C)C2)c(Cl)c1` [compound 258] registered an IC50 of less than 25 nM.
With `CC[C@H]1CN(c2ncc(C(=O)NC)cc2Cl)CCN1C1CCN(C(=O)c2ccc(Cl)cc2)CC1` [compound 259], the half-inhibitory concentration (IC50) is less than 25 nM.
The molecule `CCNC(=O)c1cnc(N2CCN(C3CCN(C(=O)c4ccc(Cl)cc4F)CC3)[C@@H](CC)C2)c(Cl)c1` [compound 260] came in with an IC50 of less than 25 nM.

Staying with this assay, now noted: value given in text as example.
Regarding `CCNC(=O)c1cnc(N2CCN(C3CCN(Cc4ccc(Cl)cc4F)CC3)[C@@H](CC)C2)c(Cl)c1` [compound 212], the IC50 amounted to 0.2 nM.

What is called IC50 is the concentration that inhibits the measured activity by half. A lower IC50 goes with greater potency in that assay.
